Test results published in paper PMC8394356 (Biomedicines, 2021).
Structures can show the parent of a compound that is named as a salt. Where two headings read alike, the source gives them in different places.

Columns and labels:
[1] = Oxygen radical absorbance capacity (ORAC), OxiSelect Assay Kit; details: for ORAC activities, fold higher than those of Trolox / ORAC activities relative to those of Trolox: compound at 10 μM; for ORAC values: compound at a concentration of 10 μM; for ORAC activities relative to those of Trolox: % of Trolox
Description: The antioxidant index of free radical scavenging activities of the extracts (1.5 or 2.5 μg/mL) and purified compounds (10 μM) of TT-hull were determined by a commercial OxiSelect™ Assay Kit for oxygen radical absorbance capacity (ORAC) determination. The standard curve of ORAC was plotted using different concentrations of water-soluble vitamin E analog (the compound’s name was Trolox, 6-hydroxy-2,5,7,8-tetramethylchroman-2-carboxylic acid) at 2.5, 5, 10, 20, 40, and 60 μM. Therefore, the ORAC activities of TT-hull extracts or purified compounds were calculated equivalently to the Trolox effects and expressed as Trolox equivalents (μM).

[2] = molecular target: T1, recombinant human AChE (Homo sapiens, UniProt P22303); assay: biochemical; details: for IC50: isolated compounds from TT-hull-50EE, recombinant human AChE
T1 construct: purchased R&D Systems Inc. 7574-CE
Description: The acetylthiocholine iodide and DTNB were used for in vitro AChE inhibitory activity assays following the previous report. […] An equal volume of DMSO instead of the sample solution was used as a blank and expressed as 100% AChE activity. The absorbance changes were recorded at 405 nm for 10 min. The AChE inhibition (%) was calculated as follows: [(A405blank−A405sample)/(A405blank)] × 100%.

[3] = tested on: scopolamine-induced amnesiac ICR mice; assay: Passive avoidance test in scopolamine-induced amnesiac ICR mice; assay type: in vivo; details: scopolamine 1 mg/kg i.p.
Description: The oral administration of TT-hull extracts or purified compounds in scopolamine-induced amnesiac ICR mice was performed according to the previous report, with some modifications. The 8-week-old male ICR mice were purchased from the Laboratory Animal Center, College of Medicine, National Taiwan University (Taipei, Taiwan). Normal diets (Prolab® RMH2500, Jefferson City, MO, USA) and water were provided during the animal experiments. All animal experimental protocols were approved by the Institutional Animal Care and Use Committee of Taipei Medical University (LAC-2016-0275). After one week of acclimation, for treatments of TT-hull extracts to test prevention, the mice were randomly divided into seven groups (6 heads/group), including the blank, the control, the donepezil-positive control, and the four extract-administered groups. […] Except for the blank group, the mice in each group were intraperitoneally injected with scopolamine (1 mg/kg) 30 min after the oral sample administration, and the mice in the blank group were injected with an equal volume of PBS. After being injected with scopolamine or PBS for another 30 min, each mouse was evaluated by a passive avoidance test at day 13 to day 14 and by the Morris water maze from day 17 to day 19. At the end of the experiments at day 20, the mice were sacrificed. For oral administration of purified compounds to test prevention, the ICR mice were pre-administered orally with TT-1 (100 mg/kg, 200 mg/kg) or TT-2 (300 mg/kg) once a day by gavage from day 1 to day 5; […]. From day 6 to day 11, the procedure was the same for the oral administration of the TT-hull extracts. Each mouse was evaluated by a passive avoidance test at day 6 to day 7 and by the Morris water maze from day 8 to day 10. […]
The passive avoidance test and Morris water maze were used to evaluate the learning and memory functions of scopolamine-treated mice after the treatments with TT-hull extracts or purified compounds, by following the previous report. […] The time for which each mouse stayed in the light box (step-through latency of the acquisition trial, sec) was recorded. […] On the second day of the passive avoidance test (as the retention trial), the same protocol was performed, except that there were no electric foot shocks in the dark box, and the time for which each mouse stayed in the light box (step-through latency of the retention trial) was recorded. […] For the second training procedure of the third day (as the reference memory task), the time required for the mouse to find and climb onto the platform from the starting point was recorded as the latency (sec). The platform was then removed (as the probe test), and the swimming time and crossing time in the platform quadrant were recorded for each mouse.

[4] = molecular target: T2, Aβ (1-42) peptide (Homo sapiens, UniProt P05067); assay: Inhibition of Aβ (1-42) aggregation in vitro (ThT fluorescent assay); assay type: biochemical; details: for inhibition at 10 µM: read-out: inhibition of Aβ aggregation
T2 construct: the synthetic Aβ (1-42) peptide was weighed in an Eppendorf tube; purchased Kelowna International Scientific Inc; host or cells: synthetic peptide
Description: The ThT fluorescent assay was used to monitor the isolated compounds from the TT-hull on inhibition of Aβ (1-42) peptide aggregations. For the preparation of the Aβ stock film, the synthetic Aβ (1-42) peptide was weighed in an Eppendorf tube and dissolved in HFIP to prepare a 1 mM stock solution; then, HFIP solvent was evaporated to form the Aβ (1-42) film. The stock film was dissolved in 100 μL of 60 mM NaOH, and further diluted with 50 mM phosphate buffer (pH7.4, containing 150 mM sodium chloride, 1 mM EDTA, and 0.02% sodium azide). The 125 μL working solution contained 10 μM Aβ (1-42) peptide, purified compounds (10, 20, and 40 μM in DMSO), and 10 μM ThT solution, which was gently shaken at 37 °C for 24 h. The mixture without the sample additions was the control. The fluorescence ratios of Ex440nm/Em486nm were recorded at a time of 0 h and 24 h, and changes in fluorescence over a 24 h period were expressed as ΔE. The inhibition of Aβ aggregation (%) was calculated as [(ΔEcontrol−ΔEsample)/(ΔEcontrol)] × 100%.

[5] = tested on: scopolamine-induced amnesiac mice; details: 10 mg/kg, with or without nanoparticle-delivered formulation; cited from earlier work
[6] = tested on: scopolamine-induced amnesiac ICR mice; assay: Morris water maze in scopolamine-induced amnesiac ICR mice; assay type: in vivo; details: donepezil 5 mg/kg, scopolamine 1 mg/kg i.p.
Description: The oral administration of TT-hull extracts or purified compounds in scopolamine-induced amnesiac ICR mice was performed according to the previous report, with some modifications. The 8-week-old male ICR mice were purchased from the Laboratory Animal Center, College of Medicine, National Taiwan University (Taipei, Taiwan). Normal diets (Prolab® RMH2500, Jefferson City, MO, USA) and water were provided during the animal experiments. All animal experimental protocols were approved by the Institutional Animal Care and Use Committee of Taipei Medical University (LAC-2016-0275). After one week of acclimation, for treatments of TT-hull extracts to test prevention, the mice were randomly divided into seven groups (6 heads/group), including the blank, the control, the donepezil-positive control, and the four extract-administered groups. […] Except for the blank group, the mice in each group were intraperitoneally injected with scopolamine (1 mg/kg) 30 min after the oral sample administration, and the mice in the blank group were injected with an equal volume of PBS. After being injected with scopolamine or PBS for another 30 min, each mouse was evaluated by a passive avoidance test at day 13 to day 14 and by the Morris water maze from day 17 to day 19. At the end of the experiments at day 20, the mice were sacrificed. For oral administration of purified compounds to test prevention, the ICR mice were pre-administered orally with TT-1 (100 mg/kg, 200 mg/kg) or TT-2 (300 mg/kg) once a day by gavage from day 1 to day 5; […]. From day 6 to day 11, the procedure was the same for the oral administration of the TT-hull extracts. Each mouse was evaluated by a passive avoidance test at day 6 to day 7 and by the Morris water maze from day 8 to day 10. At the end of the experiments at day 11, the mice were sacrificed, and the brain tissue was isolated and stored at −80 °C for further measurements.
The passive avoidance test and Morris water maze were used to evaluate the learning and memory functions of scopolamine-treated mice after the treatments with TT-hull extracts or purified compounds, by following the previous report. The apparatus of the passive avoidance test included a light box and a dark box separated by a guillotine door in a shuttle chamber (AccuScan Instruments Inc, Columbus, OH, USA), and a wired metal floor was placed in the dark box to provide electric foot shocks during the acquisition trial. On the first day of the passive avoidance test (as the acquisition trial), each mouse was acclimatized to the shuttle chamber for 30 min, and then placed in the light box. The mouse entered the dark box, the guillotine door was immediately closed, and, at the same time, an electric shock (0.3 mA) was delivered for 3 sec to the mouse via the wired metal floor. The time for which each mouse stayed in the light box (step-through latency of the acquisition trial, sec) was recorded. […] On the second day of the passive avoidance test (as the retention trial), the same protocol was performed, except that there were no electric foot shocks in the dark box, and the time for which each mouse stayed in the light box (step-through latency of the retention trial) was recorded. For the Morris water maze evaluations, a three-successive-day training protocol was performed; each mouse was trained for 1 min to find and climb onto the platform twice a day at 30 min intervals. For the second training procedure of the third day (as the reference memory task), the time required for the mouse to find and climb onto the platform from the starting point was recorded as the latency (sec). The platform was then removed (as the probe test), and the swimming time and crossing time in the platform quadrant were recorded for each mouse.

[7] = tested on: reduced form GSH contents in brain extracts; assay: Reduced GSH levels in brain tissue extracts of treated mice; assay type: in vivo; details: oral TT-1 200 mg/kg, donepezil 5 mg/kg; scopolamine-induced amnesiac mice
Description: (§1) At the end of the TT-1 and TT-2 treatments, mice were sacrificed, and the whole brain of each ICR mouse was isolated and immediately stored at −80 °C for the measurement of residual AChE activity and the reduced GSH levels. The whole brain of each mouse was ground into powder by means of a mortar and pestle in liquid nitrogen and then extracted by adding 1 mL of 100 mM phosphate buffer (pH 7.5) to the ice bath. […] The residual AChE activity of each brain extract was expressed as [A405sample−A405sample blank]/μg protein.

[8] = cited from earlier work
[9] = molecular target: T3, AChE activity in brain extracts (Mus musculus, UniProt P21836); assay type: in vivo; details: oral TT-1 200 mg/kg, donepezil 5 mg/kg; scopolamine-induced amnesiac mice
T3 construct: from tissue; host or cells: whole brain of ICR mice
Description: as §1

[10] = read-out: IC50 of AChE inhibitory activity
[11] = purified compound experiment, oral TT-1 100 and 200 mg/kg, TT-2 300 mg/kg, donepezil 5 mg/kg
[12] = 1:1 ratio of Aβ to compound, 10 μM:10 μM, 37 °C, 24 h
[13] = 1:2 ratio of Aβ to compound, 10 μM to 20 μM, 37 °C, 24 h
[14] = 1:4 ratio of Aβ to compound, 10 μM to 40 μM, 37 °C, 24 h
[15] = IC50 of AChE inhibitory activity
[16] = extract experiment, oral 50EE or HWE 100 and 200 mg/kg
[17] = purified compound experiment, oral TT-1 200 mg/kg

T2 sequence (P05067 672-713): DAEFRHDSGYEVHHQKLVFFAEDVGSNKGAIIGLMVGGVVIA
T1 sequence (P22303 32-614): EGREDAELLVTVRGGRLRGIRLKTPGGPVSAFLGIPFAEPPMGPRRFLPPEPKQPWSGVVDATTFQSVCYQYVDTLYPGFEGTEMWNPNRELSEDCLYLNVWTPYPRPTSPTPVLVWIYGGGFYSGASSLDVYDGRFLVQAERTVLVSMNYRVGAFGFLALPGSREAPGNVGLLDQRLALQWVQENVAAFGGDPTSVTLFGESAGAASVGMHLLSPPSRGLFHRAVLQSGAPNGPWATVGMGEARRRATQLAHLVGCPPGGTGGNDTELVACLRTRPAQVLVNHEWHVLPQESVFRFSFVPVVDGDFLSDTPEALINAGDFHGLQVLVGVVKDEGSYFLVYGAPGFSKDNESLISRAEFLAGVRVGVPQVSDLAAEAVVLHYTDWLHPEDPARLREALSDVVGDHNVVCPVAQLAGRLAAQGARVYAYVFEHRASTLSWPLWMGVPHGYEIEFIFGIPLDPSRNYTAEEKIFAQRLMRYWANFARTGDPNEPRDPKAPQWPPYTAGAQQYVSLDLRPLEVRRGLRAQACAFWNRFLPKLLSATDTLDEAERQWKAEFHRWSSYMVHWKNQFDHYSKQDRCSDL
T3 sequence (P21836 32-614): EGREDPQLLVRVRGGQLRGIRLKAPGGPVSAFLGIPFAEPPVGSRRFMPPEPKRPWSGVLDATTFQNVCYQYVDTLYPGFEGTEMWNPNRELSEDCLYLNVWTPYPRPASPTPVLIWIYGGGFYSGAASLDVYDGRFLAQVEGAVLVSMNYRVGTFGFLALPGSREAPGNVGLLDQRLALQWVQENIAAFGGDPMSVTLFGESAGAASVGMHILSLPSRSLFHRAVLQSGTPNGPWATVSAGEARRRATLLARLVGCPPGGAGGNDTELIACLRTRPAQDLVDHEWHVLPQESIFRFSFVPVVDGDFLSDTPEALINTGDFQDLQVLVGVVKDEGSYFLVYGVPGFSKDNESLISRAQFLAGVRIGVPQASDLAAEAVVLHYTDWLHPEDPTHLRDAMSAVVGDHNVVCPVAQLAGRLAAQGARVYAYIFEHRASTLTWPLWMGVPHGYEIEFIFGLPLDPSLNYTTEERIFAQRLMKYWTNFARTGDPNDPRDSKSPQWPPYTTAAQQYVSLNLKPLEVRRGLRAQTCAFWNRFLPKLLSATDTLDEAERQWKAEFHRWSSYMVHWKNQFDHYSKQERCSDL

SMILES | ORAC activities, fold higher than those of Trolox [1] | ORAC values [1] [μM Trolox equivalents] | IC50 [2, 10] [µM] | step-through latency in the retention trial vs control [3, 11] | inhibition at 10 µM [4, 12] [%] | inhibition of Aβ aggregation [4, 13] [%] | inhibition of Aβ aggregation [4, 14] [%] | other results
O=C(OC[C@H]1O[C@@H](OC(=O)c2cc(O)c(O)c(O)c2)[C@H](OC(=O)c2cc(O)c(O)c(O)c2)[C@@H](OC(=O)c2cc(O)c(O)c(O)c2)[C@@H]1O)c1cc(O)c(O)c(O)c1 [TT-2, 1,2,3,6-tetra-O-galloyl-β-D-glucopyranoside] | close to two-fold higher | 18.7 | 84.2 | no significant differences (p > 0.05) | 58.5 | 88.08 |  | 
O=C(O[C@H]1[C@@H]2OC(=O)c3cc(O)c(O)c(O)c3-c3c(cc(O)c(O)c3O)C(=O)OC[C@H]2OC(O)[C@@H]1OC(=O)c1cc(O)c(O)c(O)c1)c1cc(O)c(O)c(O)c1 (some centres unmarked) [TT-8, tellimagrandin I] |  | 7.5 | 18.4 |  |  | 97.13 | 100 | ORAC activities relative to those of Trolox [1]: 75%; inhibition at 10 µM [4]: 66.6%
O=C(OC[C@H]1O[C@@H](OC(=O)c2cc(O)c(O)c(O)c2)[C@H](OC(=O)c2cc(O)c(O)c(O)c2)[C@@H](O)[C@@H]1O)c1cc(O)c(O)c(O)c1 [TT-4, 1,2,6-tri-O-galloyl-β-D-glucopyranoside] | close to two-fold higher | 18.1 | > 800 |  | 54.6 | 86.82 | 100 | inhibition at 800 µM ([2]; at concentration of 800 μM): < 50%
O=C(O[C@@H]1O[C@H](CO)[C@@H](O)[C@H](OC(=O)c2cc(O)c(O)c(O)c2)[C@H]1OC(=O)c1cc(O)c(O)c(O)c1)c1cc(O)c(O)c(O)c1 [TT-3, 1,2,3-tri-O-galloyl-β-D-glucopyranoside] | close to two-fold higher | 15.1 | 371 |  | 42.7 | 92.44 |  | 
O=C(O)c1cc(O)c(O)c(O)c1 [TT-6, gallic acid] | 2.4 fold | 23.7 |  |  | 37.2 | 77.73 | 88.19 | IC50 [2, 15]: 246 µM; learning behavior functions in the probe test of the Morris water maze [5]: showed improved learning behavior functions
COc1cc2c(cc1OC)C(=O)C(CC1CCN(Cc3ccccc3)CC1)C2 (centres unmarked) [donepezil, donepezil hydrochloride] |  |  |  | showed longer step-through latency |  |  |  | step-through latency in the retention trial vs control ([3]; extract experiment, oral 50EE or HWE 100 and 200 mg/kg daily day 1-20, donepezil 5 mg/kg day 11-20): remained for a longer period of time in the light box; crossing numbers in the target quadrant, probe test, vs control [6, 16]: higher crossing numbers in the target quadrant; time spent in the target quadrant, probe test, vs control [6, 16]: spent more time in the target quadrant; crossing numbers in the target quadrant, probe test, vs control [6, 17]: higher crossing numbers in the target quadrant; time spent in the target quadrant, probe test, vs control [6, 17]: longer time spent in the target quadrant
O=C(OC1O[C@@H]2COC(=O)c3cc(O)c(O)c(O)c3-c3c(cc(O)c(O)c3O)C(=O)O[C@H]2[C@H](OC(=O)c2cc(O)c(O)c(O)c2)[C@H]1OC(=O)c1cc(O)c(O)c(O)c1)c1cc(O)c(O)c(O)c1 (some centres unmarked) [TT-1, Tellimagrandin II] |  | 5.1 |  | showed longer step-through latency | 75.8 | 100 | 100 | reduced form GSH contents in brain extracts vs control [7]: higher reduced form GSH contents; ORAC activities relative to those of Trolox [1]: 50%; IC50 [2, 15]: 18.6 µM; crossing numbers in the target quadrant, probe test, vs control [6, 17]: higher crossing numbers in the target quadrant; time spent in the target quadrant, probe test, vs control [6, 17]: longer time spent in the target quadrant; remaining contents ([8]; acidic buffers (pH 2 or pH 4) and simulated gastric fluids (pH 1.2)): higher than 90%; residual content ([8]; simulated intestinal fluids (pH 7.5) at 37 °C for 9 h): 31.40%; AChE activity in brain extracts vs control [9]: lower AChE activity
